Literature values as cited in patent publication US10548876B2 (Race Oncology Ltd., priority 2013, dated 2020).
Structures can show the parent of a compound that is named as a salt. Where two headings read alike, the source gives them in different places.

Tests used:
P-glycoprotein = P-glycoprotein (Homo sapiens, UniProt P08183)
[1] = system: refractory malignant melanoma
[2] = system: hepatic microsomal enzymes; settings: specific metabolites not identified
[3] = 72-hr infusion
[4] = one report; interpreted as tissue sequestration with depot effect
[5] = system: colon 26, Lewis lung, Ridgway osteosarcoma, B16, Lieberman plasma cell, P388 or L1210 cancer cells
[6] = 5 day schedule of 60 min infusions
double-stranded DNA = settings: under physiological conditions, threading mode
human colon cancer = human colon cancer tested in vitro or in vivo
[7] = over 96 hr
metastatic breast cancer = settings: patients with metastatic breast cancer
[8] = physiologic pH
[9] = not given; remark: listed apart in the source
[10] = triphasic elimination
[11] = in vivo
[12] = not given; remark: listed apart in the source
[13] = not given; remark: listed apart in the source
[14] = not given; remark: listed apart in the source
[15] = target: glycogen synthase kinase-3β (GSK-3β) (Homo sapiens, UniProt P49841)
[16] = local injection; physically decomposes bisantrene
[17] = system: telomerase-expressing cells and ALT-positive cell lines
telomerase = settings: by interfering with substrate recognition
[18] = patients, 90 min infusion at 260 mg/m^2

Chain of glycogen synthase kinase-3β (GSK-3β) (P49841 whole entry, species assumed): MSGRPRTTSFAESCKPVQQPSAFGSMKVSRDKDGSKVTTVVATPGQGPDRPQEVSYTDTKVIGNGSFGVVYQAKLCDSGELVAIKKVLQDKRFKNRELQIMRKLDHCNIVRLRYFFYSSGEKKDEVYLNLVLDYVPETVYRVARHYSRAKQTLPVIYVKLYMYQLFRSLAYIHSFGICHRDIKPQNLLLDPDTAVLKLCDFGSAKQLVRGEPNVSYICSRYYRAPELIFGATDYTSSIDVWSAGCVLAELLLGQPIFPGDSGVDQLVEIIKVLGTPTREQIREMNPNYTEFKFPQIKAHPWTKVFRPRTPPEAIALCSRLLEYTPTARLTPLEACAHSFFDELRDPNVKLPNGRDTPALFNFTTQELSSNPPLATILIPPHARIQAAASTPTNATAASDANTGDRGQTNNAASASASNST
Chain of P-glycoprotein (P08183 whole entry): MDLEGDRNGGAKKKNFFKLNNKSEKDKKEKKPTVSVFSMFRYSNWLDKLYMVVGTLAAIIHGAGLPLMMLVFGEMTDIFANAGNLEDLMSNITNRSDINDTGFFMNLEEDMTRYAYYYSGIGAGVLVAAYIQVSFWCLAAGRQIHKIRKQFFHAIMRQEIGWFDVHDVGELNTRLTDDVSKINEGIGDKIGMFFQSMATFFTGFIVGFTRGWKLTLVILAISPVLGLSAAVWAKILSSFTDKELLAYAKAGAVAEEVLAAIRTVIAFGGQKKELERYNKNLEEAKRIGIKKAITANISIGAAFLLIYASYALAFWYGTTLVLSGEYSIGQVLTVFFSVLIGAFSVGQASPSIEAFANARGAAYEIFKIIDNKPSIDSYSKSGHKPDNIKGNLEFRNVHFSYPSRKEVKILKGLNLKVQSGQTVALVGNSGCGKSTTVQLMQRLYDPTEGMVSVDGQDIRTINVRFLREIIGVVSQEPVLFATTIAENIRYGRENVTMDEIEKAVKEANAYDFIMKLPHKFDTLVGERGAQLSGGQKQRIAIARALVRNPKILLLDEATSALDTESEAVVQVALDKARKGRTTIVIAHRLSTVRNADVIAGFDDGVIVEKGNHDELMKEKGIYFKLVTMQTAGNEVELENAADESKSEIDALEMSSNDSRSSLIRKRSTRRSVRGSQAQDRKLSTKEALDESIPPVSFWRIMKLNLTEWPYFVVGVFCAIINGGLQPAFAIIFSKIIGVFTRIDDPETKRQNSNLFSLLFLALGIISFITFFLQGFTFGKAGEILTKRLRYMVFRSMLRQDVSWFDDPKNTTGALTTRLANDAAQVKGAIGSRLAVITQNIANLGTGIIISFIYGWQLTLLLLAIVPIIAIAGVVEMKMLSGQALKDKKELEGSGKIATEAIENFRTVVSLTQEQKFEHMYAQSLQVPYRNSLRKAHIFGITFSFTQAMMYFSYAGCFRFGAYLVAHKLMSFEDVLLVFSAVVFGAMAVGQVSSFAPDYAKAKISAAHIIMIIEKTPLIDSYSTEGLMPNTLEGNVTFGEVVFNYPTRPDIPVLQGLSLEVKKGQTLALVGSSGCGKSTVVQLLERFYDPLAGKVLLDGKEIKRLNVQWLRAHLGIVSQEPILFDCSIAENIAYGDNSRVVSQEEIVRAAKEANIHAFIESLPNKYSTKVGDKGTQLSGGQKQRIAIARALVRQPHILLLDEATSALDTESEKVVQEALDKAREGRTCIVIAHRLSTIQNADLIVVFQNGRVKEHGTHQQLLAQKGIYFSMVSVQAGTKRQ

C(=NNC1=NCCN1)c1c2ccccc2c(C=NNC2=NCCN2)c2ccccc12 [bisantrene, 9,10-anthracenedicarboxaldehyde bis[(4,5-dihydro-1H-imidazol-2-yl)hydrazine]dihydrochloride]
interaction with P-glycoprotein (P-glycoprotein): substrate for P-glycoprotein | time after treatment for which cytostatic macrophages could be isolated from peritoneal exudate (macrophages; cytostatic in cultures of P815 (mastocytoma) tumor cells): 4 weeks | minimal effective in vivo dose (macrophages; macrophage activation): ~25 mg/kg | activity [1]: inactive | metabolism in vitro [2]: substrate for hepatic microsomal enzymes | plasma clearance [3]: 1306±179 mL/min/m^2 | plasma concentration ([3]; dose of 56 mg/m^2): 12 ± 6 ng/mL | plasma concentration ([3]; dose of 260 mg/m^2): 55 ± 8 ng/mL | urinary excretion of the dose ([3]; in 24 hr): 4.6% | dose excreted in the urine (in vivo): Less than 7% | route by which the majority of the drug is eliminated (in vivo): hepatobiliary route | area under the plasma concentration×time curve (intravenous dose of 260 mg/m^2): 4400 µg·h/mL | area under the plasma concentration×time curve (intravenous dose of 340 mg/m^2): 5700 µg·h/mL | beta phase (three phases of elimination): approximately 1.5 hours | initial distributive phase (three phases of elimination): 6 min | volume of distribution [4]: 687 L/m^2 | activity in murine tumor models ([5]; P-388 leukemia and B-16 melanoma): antitumor activity | activity in cancer models ([5]; intravenously (i.v.), intraperitoneally (i.p.), or subcutaneously (s.c.)): effective | activity in cancer models ([5]; orally): inactive | dose excreted in the urine [6]: 7.1% | t½ α [6]: 0.9 h | t½ β [6]: 9.7 h | affinity constants (double-stranded DNA): above 10^6 M^−1 | activity (human colon cancer): inactive | administered dose found in the urine [7]: 3.4±1.1% | activity in Phase II clinical trials (metastatic breast cancer): active | aqueous solubility [8]: lack of aqueous solubility | cardiotoxicity ([9]; animals): not cardiotoxic | toxicity compared with doxorubicin ([9]; cardiotoxicity context): less than that of the anthracycline doxorubicin | toxicities observed ([9]; dogs and monkeys, high doses): leukopenia, anorexia, diarrhea, injection site necrosis, enterocolitis, muscle degeneration, and pulmonary edema | t½ α ([10]; another single dose study): 3 min | t½ β ([10]; another single dose study): 1 h | t½ γ ([10]; another single dose study): 8 h | t½ α ([10]; first single dose study): 3.44 min | t½ β ([10]; first single dose study): 1.33 h | t½ γ ([10]; first single dose study): 26.13 h | Brain levels [11]: extremely low | tissues with the highest concentration (in descending order) [11]: kidney, liver, gallbladder, spleen, lung, and heart | Maximally tolerated dose ([12]; daily×5, repeat every 4 week (Spiegel et al. 1982)): 80 mg/m^2 | antitumor activity in phase I clinical trials ([12]; hepatocellular cancer and hypernephroma (one patient each), lymphoma, myeloma, melanoma, renal cancer, tumors of the bladder and lung): showed activity | Thrombocytopenia ([12]; human, in vivo): mild | major dose-limiting toxic effect ([12]; human, in vivo): leukopenia | Maximally tolerated dose ([12]; monthly (every 3-4 week) (Von Hoff et al. 1981b)): 260 mg/m^2 | Maximally tolerated dose ([12]; monthly, patients with poor bone marrow reserve (Von Hoff et al. 1981b)): 240 mg/mg^2 | dose limiting toxicity (DLT) ([12]; phase I doses between 190-430 mg/m^2 q3w): neutropenia | doses requiring a central line due to phlebitis ([12]; phase I study, 72 h): over 156 mg/m^2 | MTD ([12]; phase I study, over 72 h): 300 mg/m^2 | nadir for myelosuppression ([12]; schedule of every 3 to 4 weeks): 9 days | recovery from myelosuppression ([12]; schedule of every 3 to 4 weeks): ≤ 19 days | Maximally tolerated dose ([12]; weekly×3 (Alberts et al. 1982)): 200 mg/m^2 | Maximally tolerated dose ([12]; weekly×3, patients with poor bone marrow reserve (Alberts et al. 1982)): 150 mg/mg^2 | Maximally tolerated dose ([12]; weekly×3, repeat every 4-5 week (Yap et al. 1982)): 150 mg/m^2 | administered dose excreted unchanged in the urine ([13]; in 24 hr): 11.3% | plasma clearance [13, 18]: 735 mL/min/m^2 | steady state volume of distribution (Vdss) [13, 18]: 1845 L/m^2 | bound to plasma proteins (plasma proteins): More than 95% | effect on platelet aggregation (Human Platelets): inhibit platelet aggregation | patients reporting malaise ([14]; Yap et al. 1982): up to one-half of patients | patients who experienced anaphylactoid reactions ([14]; following a bisantrene infusion): Up to 10% | nausea or vomiting ([14]; human, in vivo): very little nausea or vomiting | radioangiocardiographic monitoring of cardiac function ([14]; patients receiving the drug): no decrease in ejection fraction | cardiotoxicity compared with other agents ([14]; phase III trial): less cardiotoxic than mitoxantrone or doxorubicin | Alopecia (hair loss) compared with doxorubicin ([14]; randomized trial in advanced breast cancer): less intense | DNA strand breaks (L1210 leukemia cells; L1210 leukemia cells, typical of inhibition of DNA topoisomerase II): induce protein-associated DNA strand breaks | DNA supercoiling (L1210 leukemia cells; indicative of DNA intercalation): induce altered DNA supercoiling | sensitivity in in vitro colony-forming assays (Human tumor cells; breast, ovarian, renal, small cell and non-small cell lung cancer, lymphoma, acute myelogenous leukemia, melanoma, gastric, adrenal, head and neck cancer): sensitive | Activity in clonogenic assays from 684 patients (Human tumor cells; colorectal cancer): not in colorectal cancer | cross resistance (Human tumor cells; with Adriamycin and mitoxantrone): lack of cross resistance

CN1C(=O)/C(=C2/C(=O)Nc3ccccc32)c2ccccc21 [Meisoindigo, meisoindigo]
concentration of inhibition of GSK-3β [15]: 5 to 50 nM

O=C([O-])O.[Na+] [sodium bicarbonate]
extravasation necrosis [16]: blocked

C(=N\NC1=NCCN1)/c1cccc2cc3c(/C=N/NC4=NCCN4)cccc3cc12 [Formula (III)]
apoptosis [17]: absence of apoptosis | cell cycle impairment [17]: G2M phase arrest | DNA damage response ([17]; telomerase-expressing cells and ALT-positive cell lines, partially co-localize at the telomere): formation of γH2AX foci | effect at the telomerase level (telomerase): suppressing its catalytic activity
